Assay results reported in US6218392A, “Fused pyridazine compounds” (priority 1994, dated 2001).
Where a name gives a salt, the structure may show the parent alone.

Assays:
[1] = tested on: pulmonary arterial pressure (PAP); experiment: Pulmonary arterial pressure lowering activity on anesthetized thoracotomized dog by intravenous administration; assay type: in vivo; conditions: relative ratio to activity of sodium 1-[chloro-4-(3,4-methylenedioxybenzyl)aminoquinazolin-2-yl]piperidine-4-carboxylate
Experimental: Male and female hybrid dogs having a weight of about 10 kg were operated under enflurane anesthesia with N2 O/O2 as carrier. Each dog was thoracotomized in the left fourth intercostal space and a pressure transducer (MPC-500 mfd. by Miller) was inserted into the pulmonary artery to determine the pulmonary arterial pressure (PAP). This experiment was conducted with the mean PAP (mPAP) increased by about 10 mmHg by lowering the pressure of oxygen fed by about 40% of the normal one. Each compound according to the present invention was dissolved in Polyethylene glycol 400 (a product of Wako Pure Chemical Industries, Ltd.) in a concentration of 1 mg/ml and, if necessary, further diluted with Polyethylene glycol 400. The resulting solution was intravenously administered to the dog through a polyethylene catheter indwelling in the femoral vein.

cGMP-PDE = target: T1, cGMP-PDE (Sus scrofa, UniProt A0A287B475); experiment: Inhibitory activity against cGMP-PDE prepared from swine lung; assay type: biochemical; conditions: 1 mM EGTA, 1 mM cGMP as substrate, DMSO 5% or below
T1 construct: Swine lung was minched, followed by the addition of five times (by volume) as much buffer A; from tissue; host or cells: swine lung
Experimental: The enzyme activity of the cGMP-PDE prepared from swine lung was determined according to the method of Thompson et al. This determination was conducted in the presence of 1 mM EGTA by the use of 1 mM cGMP as substrate. Each compound according to the present invention was dissolved in DMSO and thereafter added to the reaction system to determine the inhibitory activity of the compound. The final concentration of DMSO in the reaction solution was controlled to 5% or below.
The preparation of cGMP-PDE was conducted as follows.
Swine lung was minched, followed by the addition of five times (by volume) as much buffer A (comprising Tris/HCl (20 mM), Mg acetate (2 mM), 2-mercaptoethanol (10 mM), EGTA (0.1 mM) and PMSF (0.2 mM) and adjusted to pH7.4). The resulting mixture was homogenized and centrifuged at 1000×g for 5 minutes. Ammonium sulfate was added to the obtained supernatant and the resulting mixture was centrifuged at 20000×g for 45 minutes to collect a fraction precipitating between 30 and 40% saturation with ammonium sulfate. This fraction was dialyzed against buffer A and passed through a column of DEAE-Toyopearl 650S (a product of Tosoh, Tokyo, Japan). The column was washed with buffer A and subjected to gradient elution with 0.05 to 0.2 M NaClibuffer A to collect a cGMP-PDE fraction.
This cGMP-PDE fraction was passed through Blue-Sepharose CL-6B (a product of Pharmacia, Uppsala, Sweden). The resulting column was washed with buffer A containing cAMP (10 mM) and NaCl (0.5 M) and eluted with buffer A containing cGMP (10 mM) and NaCl (0.5 M). The obtained fraction was dialyzed, concentrated and stored.

| Structure (SMILES) | IC50 (cGMP-PDE) | PAP lowering activity [1] |
| --- | --- | --- |
| COc1ccc(CNc2nnc(N3CCC(O)CC3)c3ccc(C#N)cc23)cc1Cl [Example 4, 4-(3-Chloro-4-methoxybenzyl)amino-6-cyano-1-(4-hydroxypiperidino)phthalazine hydrochloride] | 0.18 nM |  |
| COc1ccc(CNc2nnc(N3CCC(CO)CC3)c3ccc(C#N)cc23)cc1Cl.Cl [Example 6, 4-(3-Chloro-4-methoxybenzyl)amino-6-cyano-1-[4-(hydroxymethyl)piperidino]phthalazine hydrochloride] | 0.015 nM | 10 |
| COc1ccc(CNc2nnc(N3CCCC(O)C3)c3ccc(C#N)cc23)cc1Cl.Cl (stereo not drawn) [Example 10, 4-(3-Chloro-4-methoxybenzyl)amino-6-cyano-1-(3-hydroxypiperidino)phthalazine hydrochloride] |  | 10 |
| COc1ccc(CNc2nnc(NCc3ccccn3)c3ccc(C#N)cc23)cc1Cl [Example 11, 4-(3-Chloro-4-methoxybenzyl)amino-6-cyano-1-(2-pyridylmethyl)aminophthalazine dihydrochloride] | 0.11 nM |  |
| COc1ccc(CNc2nn(CCCO)c(=O)c3ccc(C#N)cc23)cc1Cl [Example 25, 4-(3-Chloro-4-methoxybenzyl)amino-6-cyano-2-(3-hydroxypropyl)-1(2H)-phthalazinone] | 1.41 nM | 3 |
| Cl.N#Cc1ccc2c(N3CCC(O)CC3)nnc(NCc3ccc4c(c3)OCO4)c2c1 [Example 26, 6-Cyano-1-(4-hydroxypiperidino)-4-(3,4-methylenedioxy-benzyl)aminophthalazine hydrochloride] | 4 nM | 1 |
| COc1ccc(CNc2nnc(N3CCC(O)CC3)c3ccc(Cl)cc23)cc1Cl.Cl [Example 32, 6-Chloro-4-(3-chloro-4-methoxybenzyl)amino-1-(4-hydroxypiperidino)phthalazine hydrochloride] | 4.4 nM | 1 |
| COc1ccc(CNc2nnc(N3CCC(CCO)CC3)c3ccc([N+](=O)[O-])cc23)cc1Cl.Cl [Example 53, 4-(3-Chloro-4-methoxybenzyl)amino-1-[4-(2-hydroxyethyl)piperidino]-6-nitrophthalazine hydrochloride] | 0.23 nM | 10 |
| CCOC(=O)C1CCN(c2nnc(NCc3ccc(OC)c(Cl)c3)c3cc([N+](=O)[O-])ccc23)CC1 [Example 55, 1-(4-Ethoxycarbonylpiperidino)-4-(3-chloro-4-methoxybenzyl)amino-6-nitrophthalazine] | 4.59 nM | ≥ 1 |
| COc1ccc(CNc2nnc(N3CCC(C(=O)O)CC3)c3ccc([N+](=O)[O-])cc23)cc1Cl.Cl [Example 56, 1-(4-Carboxypiperidino)-4-(3-chloro-4-methoxybenzyl)amino-6-nitrophthalazine hydrochloride] | 12.6 nM | ≥ 1 |
| O=[N+]([O-])c1ccc2c(-n3ccnc3)nnc(NCc3ccc4c(c3)OCO4)c2c1 [Example 60, 1-(Imidazol-1-yl)-4-(3,4-methylenedioxybenzyl)amino-6-nitrophthalazine] | 20.4 nM | 1 |

The remaining molecules from weak to strong by IC50 (cGMP-PDE), led by results:

| IC50 (cGMP-PDE) | Structure (SMILES) | PAP lowering activity [1] |
| --- | --- | --- |
| 3.74 nM | COc1ccc(CNc2nnc(-n3ccnc3)c3ccc(Cl)cc23)cc1Cl [Example 31, 6-Chloro-4-(3-chloro-4-methoxybenzyl)amino-1-(imidazol-1-yl)phthalazine] | 1 |
| 2.1 nM | COc1ccc(CNc2nnc(N(C)CCCC(=O)O)c3ccc(Cl)cc23)cc1Cl [Example 44] | ≤ 0.33 |
| 1.9 nM | COc1ccc(CNc2nnc(N3CCC(CO)CC3)c3ccc(Cl)cc23)cc1Cl [Example 36, 6-Chloro-4-(3-chloro-4-methoxybenzyl)amino-1-[4-(hydroxymethyl)piperidino]phthalazine] | ≥ 1 |
| 1.88 nM | COc1ccc(CNc2nnc(Cl)c3ccc([N+](=O)[O-])cc23)cc1Cl [Example 49, 1-Chloro-4-(3-chloro-4-methoxybenzyl)amino-6-nitrophthalazine] | 1 |
| 1.8 nM | COc1ccc(CNc2nnc(N3CCC(CCO)CC3)c3ccc(Cl)cc23)cc1Cl [Example 37, 6-Chloro-4-(3-chloro-4-methoxybenzyl)amino-1-[4-(2-hydroxyethyl)piperidino]phthalazine] | ≤ 0.33 |
| 1.7 nM | COc1ccc(CNc2nnc(Cl)c3ccc(C#N)cc23)cc1Cl [Example 1, 1-Chloro-4-(3-chloro-4-methoxybenzyl)amino-6-cyanophthalazine] | ≥ 3 |
| 1.2 nM | COc1ccc(CNc2nnc(NCCCO)c3ccc(C#N)cc23)cc1Cl [Example 7, 4-(3-Chloro-4-methoxybenzyl)amino-6-cyano-1-(3-hydroxypropyl)aminophthalazine] | 1 |
| 0.7 nM | COc1ccc(CNc2nnc(N3CCC(C)(O)CC3)c3ccc(C#N)cc23)cc1Cl.Cl [Example 9, 4-(3-Chloro-4-methoxybenzyl)amino-6-cyano-1-(4-hydroxy-4-methylpiperidino)phthalazine hydrochloride] | 10 |
| 0.53 nM | COc1ccc(CNc2nnc(N3CCC(=O)CC3)c3ccc(C#N)cc23)cc1Cl.Cl [Example 19, 4-(3-Chloro-4-methoxybenzyl)amino-6-cyano-1-(4-oxopiperidino)phthalazine hydrochloride] | 3-10 |
| 0.37 nM | COc1ccc(CNc2nnc(N3CCC(C(=O)O)CC3)c3ccc(Cl)cc23)cc1Cl [Example 43, 1-(4-Carboxypiperidino)-6-chloro-4-(3-chloro-4-methoxybenzyl)aminophthalazine] | 1 |
| 0.32 nM | COc1ccc(CNc2nnc(N3CCC(C(=O)O)CC3)c3cc(Cl)c(Cl)cc23)cc1Cl [Example 67, 1-(4-Carboxypiperidino)-4-(3-chloro-4-methoxybenzyl)amino-6,7-dichlorophthalazine] | 0.33 |
| 0.12 nM | COc1ccc(CNc2nnc(N3CCC(C(=O)O)CC3)c3ccc(C#N)cc23)cc1Cl [Example 20, 1-(4-Carboxypiperidino)-4-(3-chloro-4-methoxybenzyl)-amino-6-cyanophthalazine hydrochloride] | 0.3-1 |
| 0.1 nM | COc1ccc(CNc2nnc(N3CCC(CO)CC3)c3ccc([N+](=O)[O-])cc23)cc1Cl.Cl [Example 52, 4-(3-Chloro-4-methoxybenzyl)amino-1-[4-(hydroxymethyl)piperidino]-6-nitrophthalazine hydrochloride] | 10 |
| 0.052 nM | COc1ccc(CNc2nnc(N3CCC(O)CC3)c3ccc([N+](=O)[O-])cc23)cc1Cl [Example 51, 4-(3-Chloro-4-methoxybenzyl)amino-1-(4-hydroxy-piperidino)-6-nitrophthalazine hydrochloride] |  |
| 0.03 nM | COc1ccc(CNc2nnc(N3CCC(CCO)CC3)c3ccc(C#N)cc23)cc1Cl.Cl [Example 8, 4-(3-Chloro-4-methoxybenzyl)amino-6-cyano-1-[4-(2-hydroxyethyl)piperidino]phthalazine hydrochloride] | 10 |
